“And” between values parts separate entries of the source, which are not always exact repeats. Identical values can stand only once.
Columns and labels:
Influenza A (H1N1) 2009 [1] = settings: in vivo
Influenza A (H1N1) 2009 [2] = settings: in vivo; remark: listed apart in the source

## CCOC(=O)C1=C[C@@H](OC(CC)CC)[C@H](NC(C)=O)[C@@H](N)C1 [Oseltamivir, oseltamivir]
Influenza A (H1N1) 2009 [1]
  fever settled, day of illness: 5
  outcome of close contacts given oseltamivir prophylaxis: remained well
Influenza A (H1N1) 2009 [2]
  RT-PCR: positive
  ct value: 24 and 32 and 35
